Assay results taken from patent US20150352116A1, “HDAC INHIBITOR AND BTK INHIBITOR COMBINATIONS” (Pharmacyclics LLC, priority 2014, published 2015).

Experiments:
Assay type in all cases: cell-based
[1] = system: CLL cells; experiment: annexin apoptosis assay on CLL cells
Text: FIG. 5 illustrates an annexin apoptosis assay on CLL cells.
FIG. 9 illustrates an annexin apoptosis assay on CLL cells.
(§1) FIG. 1A illustrates a nanostring miRNA expression data table. […] FIG. 1B illustrates HDAC1 knockdown in CLL cells. FIG. 2A illustrates a human BTK mRNA map. […] FIG. 2C illustrates a miRNA map. HDAC inhibition is associated with the accumulation of activating chromatin modifications (H3K4me3) that promote gene re-expression. FIG. 3A illustrates a miRNA expression data table. FIG. 3B illustrates miRNA expression in the presence or absence of 0.4 μM Abexinostat in unmutated 17p CLL. […] FIG. 5 illustrates an annexin apoptosis assay on CLL cells. […] FIG. 6 illustrates survival after leukemia in a TCL-1 mouse model. […] FIG. 9 illustrates an annexin apoptosis assay on CLL cells. […] FIG. 10 illustrates the expression of phosphorylated BTK Y223 in the presence of Abexinostat in AML cells.

[2] = system: CLL cells; experiment: sensitivity of CLL cells from extended-lymphocytosis or ibrutinib-resistant samples (FIG. 7); conditions: samples with extended lymphocytosis or that develop resistance to Ibrutinib
Protocol: as §1

[3] = system: Btk-directed miRNA; experiment: miRNA expression in unmutated 17p CLL; conditions: 0.4 μM Abexinostat, unmutated 17p (high risk) CLL, FIG. 3B
Protocol: FIG. 3A illustrates a miRNA expression data table. FIG. 3B illustrates miRNA expression in the presence or absence of 0.4 μM Abexinostat in unmutated 17p CLL.
as §1

## CN(C)Cc1c(C(=O)NCCOc2ccc(C(=O)NO)cc2)oc2ccccc12 [Abexinostat, 3-[(Dimethylamino)methyl]-N-{2-[4-(hydroxycarbamoyl)phenoxy]ethyl}-1-benzofuran-2-carboxamide]
[1]; Abexinostat in combination with ibrutinib, FIG. 5
  killing of CLL cells (annexin apoptosis), combination effect: synergized with ibrutinib to kill CLL cells
[1]; samples with extended lymphocytosis or that develop resistance to Ibrutinib, FIG. 9
  sensitivity of CLL cells to Abexinostat (annexin apoptosis): retain sensitivity
[2]
  sensitivity of CLL cells to Abexinostat: retaining sensitivity
[3]
  effect on miRNA expression: de-repression of Btk-directed miRNA
